From patent US20160279187A1, “CALPAIN INHIBITORS FOR IBD AND COLORECTAL CANCER TREATMENT” (UNIVERSITY OF HAWAII, priority 2013, published 2016)
Where a SMILES comes first, the peptide text is derived from it. The star is where a group is joined. Cbz = O=C(OCc1ccccc1)*; CH2F = FC*

Key:
[1] = target: T1, M-Calpain activity in HT-29 cells (Homo sapiens, UniProt P17655); assay: Calpain Activity Assay Kit (BioVision), HT-29; type: cell-based; conditions: HT-29, vs DMSO, 1 hour
T1 construct: endogenous in cells; host or cells: HT-29 human colorectal cancer cells
T1 sequence (P17655 20-700 limits assumed): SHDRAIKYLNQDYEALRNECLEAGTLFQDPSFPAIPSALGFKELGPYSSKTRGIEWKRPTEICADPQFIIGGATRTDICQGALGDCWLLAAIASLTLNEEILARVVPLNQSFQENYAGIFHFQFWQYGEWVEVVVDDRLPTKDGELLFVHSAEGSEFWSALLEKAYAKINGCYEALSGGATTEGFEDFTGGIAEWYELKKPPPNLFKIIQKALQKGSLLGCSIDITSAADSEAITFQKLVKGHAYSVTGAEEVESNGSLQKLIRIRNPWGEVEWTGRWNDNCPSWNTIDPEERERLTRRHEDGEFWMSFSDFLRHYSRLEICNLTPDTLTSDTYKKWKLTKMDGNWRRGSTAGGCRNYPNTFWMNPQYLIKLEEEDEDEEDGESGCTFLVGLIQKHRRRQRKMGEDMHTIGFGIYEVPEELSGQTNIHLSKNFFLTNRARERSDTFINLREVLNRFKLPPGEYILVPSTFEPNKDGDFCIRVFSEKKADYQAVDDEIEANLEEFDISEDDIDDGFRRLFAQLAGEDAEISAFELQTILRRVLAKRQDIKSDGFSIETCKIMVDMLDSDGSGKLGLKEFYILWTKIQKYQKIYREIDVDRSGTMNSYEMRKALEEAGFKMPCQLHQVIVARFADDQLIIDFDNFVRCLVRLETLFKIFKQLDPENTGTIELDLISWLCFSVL
T1 sequence (P04632 1-268 partner): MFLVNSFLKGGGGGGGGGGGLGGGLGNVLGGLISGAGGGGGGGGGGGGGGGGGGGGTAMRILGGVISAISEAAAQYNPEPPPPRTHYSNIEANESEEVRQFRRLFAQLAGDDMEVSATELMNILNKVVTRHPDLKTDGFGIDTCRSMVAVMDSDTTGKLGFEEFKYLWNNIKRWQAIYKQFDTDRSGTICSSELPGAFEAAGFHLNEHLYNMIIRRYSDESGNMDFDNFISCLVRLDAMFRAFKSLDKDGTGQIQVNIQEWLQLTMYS
Experimental: (§1) Bone marrow derived macrophages (BMDM) were prepared as previously described by methods known to those skilled in the art. On day 5 of culture, 2×10^6 BMDM were seeded in 6-well plates and the following day were primed for 18 h with TNFα (20 ng/mL), followed by 1 h stimulation with E. faecalis (1 μg/mL; ATCC). Stimulation with E. faecalis was conducted in the presence of the zLLY-CH2F calpain-2 inhibitor (20 μg/mL) or DMSO as a control. Media was removed from treated BMDM, centrifuged at 300×g for 5 min and supernatent analyzed using the Cytometric Bead Array Mouse Inflammation Kit (BD Biosciences, San Jose, Calif.). Cytokine data were analyzed using Flowjo software (Ashland, Oreg.) and GraphPad Prism version 4.0 (GraphPad, La Jolla, Calif.). Cell pellets were lysed and analyzed for IκB and NFκB by Western blot as previously described (Miyazaki, T. et al. Journal of Atherosclerosis and Thrombosis 20, 228-237, 2013). […] Each day 4 wells were quantified using Celltiter MTS reagent (Promega) and the resulting signal was used to generate a proliferation curve. Calpain activity was measured using a Calpain activity assay kit (BioVision, Inc., Milpitas, Calif.) as previously described. Colons were harvested on day 4 and calpain activity measured. […]

cathespin L = cathespin L (Homo sapiens, UniProt P07711); conditions: off-target protein; Li et al., Biochemistry 2006; cited from earlier work
[2] = tested on: Akt phosphorylation / FAK cleavage in colon cancer cells; assay: other m-calpain regulated pathways in colon cancer cells (Akt, FAK); type: cell-based
[3] = tested on: calpain activity in the colon tissue; assay: DSS dose-response, calpain activity in colon tissue; type: in vivo, mice; conditions: 2% DSS 4 days
Experimental: as §1

Chain of cathespin L (P07711 114-333): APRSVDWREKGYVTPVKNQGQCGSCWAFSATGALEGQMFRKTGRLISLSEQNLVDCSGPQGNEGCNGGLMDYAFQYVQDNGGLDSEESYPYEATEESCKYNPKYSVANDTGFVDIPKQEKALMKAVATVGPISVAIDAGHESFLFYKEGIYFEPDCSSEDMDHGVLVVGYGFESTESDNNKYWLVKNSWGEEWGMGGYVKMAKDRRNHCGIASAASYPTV

**Q.** Which M-Calpain activity [1] does the source give for `CC(C)C[C@H](NC(=O)OCc1ccccc1)C(=O)N[C@@H](CC(C)C)C(=O)N[C@@H](Cc1ccc(O)cc1)C(=O)CF` [zLLY-CH2F, Z-LLY-CH2F] (Cbz-Leu-Leu-Tyr-CH2F) here?
**A.** The M-Calpain activity was “reduced”.

**Q.** And the “rate constant k2, inhibition of cathespin L” value (cathespin L)?
**A.** Its value is 680,000 M^−1s^−1.

**Q.** And the FAK cleavage [2]?
**A.** The FAK cleavage was “not apparent”.

**Q.** What about the “phosphorylation of Akt” value [2] of the same compound?
**A.** The value was “inhibited”.

**Q.** What about the “total calpain activity reduced by” value ([3]; daily i.p. injection, 0.75 mg/kg) of the same compound?
**A.** The value was 50%.

**Q.** What about the “dose at which the maximum amount of calpain activity inhibition was achieved” value ([3]; i.p., 0-1.25 mg/kg tested) of the same compound?
**A.** The value was 0.75 mg/kg.
